From patent publication US7998989B2, “2-Imino-1,3-thiazoline-based compounds and T-type calcium channel inhibitors containing the same” (Korea Institute of Science and Technology, priority 2007, dated 2011) come the findings set out here.

In series [1] the target is T1, α1G T-type calcium channel (Homo sapiens, UniProt O43497).
T1 construct: host or cells: HEK293
Kind of series: Assay for % inhibiting activity against T-type calcium channel using FDSS6000 (fluo-3 calcium imaging, KCl activation). It counts as cell-based. The conditions noted are these: HEK293 cells stably expressing α1G T-type calcium channel and Kir2.1, compounds of the examples; for inhibition at 10 µM: read-out: FDSS (% inhibition)/10uM. The essentials: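 HEK293 cells stably expressing α1G and Kir2.1 loaded with 5 μM fluo-3/AM, then in HEPES buffer (pH 7.4) with 10 mM CaCl2. Compound applied 75 s before 75 mM KCl; intracellular Ca2+ read as […] area, % inhibition relative to untreated control.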

Molecules are shown by their SMILES. Where two headings read alike, the source gives them in different places.

T1 sequence (O43497 whole entry): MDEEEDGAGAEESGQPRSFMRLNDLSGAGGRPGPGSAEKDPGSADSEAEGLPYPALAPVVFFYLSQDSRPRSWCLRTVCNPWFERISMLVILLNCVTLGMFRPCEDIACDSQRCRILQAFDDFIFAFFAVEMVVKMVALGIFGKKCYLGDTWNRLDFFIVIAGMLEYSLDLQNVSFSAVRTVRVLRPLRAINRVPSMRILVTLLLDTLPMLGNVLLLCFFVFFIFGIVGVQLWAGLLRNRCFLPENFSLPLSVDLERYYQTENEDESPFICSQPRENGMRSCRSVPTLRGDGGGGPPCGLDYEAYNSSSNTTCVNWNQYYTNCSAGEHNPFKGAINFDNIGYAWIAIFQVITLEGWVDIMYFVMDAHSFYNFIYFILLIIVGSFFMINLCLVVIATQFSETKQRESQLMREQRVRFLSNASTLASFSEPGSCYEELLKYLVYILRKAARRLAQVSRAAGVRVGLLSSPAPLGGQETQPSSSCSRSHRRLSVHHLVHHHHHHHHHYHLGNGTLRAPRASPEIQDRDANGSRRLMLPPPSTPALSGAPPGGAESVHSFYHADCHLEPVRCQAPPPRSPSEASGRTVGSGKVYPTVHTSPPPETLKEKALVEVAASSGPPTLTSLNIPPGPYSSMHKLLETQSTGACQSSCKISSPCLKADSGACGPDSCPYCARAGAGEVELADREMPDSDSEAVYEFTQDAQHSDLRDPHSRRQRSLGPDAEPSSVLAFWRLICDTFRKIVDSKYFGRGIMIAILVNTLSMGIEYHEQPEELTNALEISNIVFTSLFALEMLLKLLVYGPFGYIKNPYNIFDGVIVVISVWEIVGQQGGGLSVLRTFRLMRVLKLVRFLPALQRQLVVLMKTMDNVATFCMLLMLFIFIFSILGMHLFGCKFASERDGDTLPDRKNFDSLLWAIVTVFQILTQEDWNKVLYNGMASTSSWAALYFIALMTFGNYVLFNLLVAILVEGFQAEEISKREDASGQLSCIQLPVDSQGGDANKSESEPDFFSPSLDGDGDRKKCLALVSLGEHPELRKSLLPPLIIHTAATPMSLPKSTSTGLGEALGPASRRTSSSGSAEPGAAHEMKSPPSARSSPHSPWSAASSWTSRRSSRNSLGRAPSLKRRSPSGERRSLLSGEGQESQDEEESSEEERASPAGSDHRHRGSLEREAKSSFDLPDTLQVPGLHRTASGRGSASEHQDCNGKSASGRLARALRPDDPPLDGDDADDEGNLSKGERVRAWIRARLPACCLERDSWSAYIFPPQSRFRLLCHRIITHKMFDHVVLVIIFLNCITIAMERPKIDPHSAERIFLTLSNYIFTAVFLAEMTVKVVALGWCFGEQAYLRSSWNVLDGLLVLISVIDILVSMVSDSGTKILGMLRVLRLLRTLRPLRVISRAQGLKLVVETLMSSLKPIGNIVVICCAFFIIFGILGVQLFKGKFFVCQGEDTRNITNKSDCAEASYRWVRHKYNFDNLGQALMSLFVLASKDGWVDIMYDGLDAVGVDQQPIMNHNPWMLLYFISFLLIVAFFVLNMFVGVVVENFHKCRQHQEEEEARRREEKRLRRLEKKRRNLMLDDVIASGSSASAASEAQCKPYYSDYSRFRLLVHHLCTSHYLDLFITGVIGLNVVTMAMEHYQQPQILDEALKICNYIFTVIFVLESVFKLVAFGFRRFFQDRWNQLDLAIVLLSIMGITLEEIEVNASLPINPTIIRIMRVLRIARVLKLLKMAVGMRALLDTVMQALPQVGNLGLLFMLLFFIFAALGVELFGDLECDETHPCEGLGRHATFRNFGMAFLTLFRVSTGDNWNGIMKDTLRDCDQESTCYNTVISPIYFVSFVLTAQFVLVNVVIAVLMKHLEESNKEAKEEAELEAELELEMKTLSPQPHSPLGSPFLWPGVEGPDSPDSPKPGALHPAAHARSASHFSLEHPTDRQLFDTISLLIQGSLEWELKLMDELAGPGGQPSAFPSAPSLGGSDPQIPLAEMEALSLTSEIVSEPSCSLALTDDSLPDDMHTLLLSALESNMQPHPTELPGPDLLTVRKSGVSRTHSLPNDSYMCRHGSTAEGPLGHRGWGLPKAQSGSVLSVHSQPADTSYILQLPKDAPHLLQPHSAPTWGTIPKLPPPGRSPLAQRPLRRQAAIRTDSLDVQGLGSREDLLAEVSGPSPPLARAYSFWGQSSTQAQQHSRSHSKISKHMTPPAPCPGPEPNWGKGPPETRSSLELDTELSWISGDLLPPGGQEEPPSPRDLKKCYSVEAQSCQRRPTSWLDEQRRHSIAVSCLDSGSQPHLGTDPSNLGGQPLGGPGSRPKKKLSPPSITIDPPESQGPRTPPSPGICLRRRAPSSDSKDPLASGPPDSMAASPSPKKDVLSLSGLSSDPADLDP

For the molecule `CC1SC(=NC2CCCC2)N(C)C1CC(=O)Nc1ccc(C(C)(C)C)cc1.Cl` (centres unmarked) [KHG24656, (2-cyclopentylimino-3,5-dimethyl-1,3-thiazolidine-4-yl)-N-(4-t-butylphenyl)-acetamide hydrochloride], the melting point (as a rule, the temperature of the solid-liquid transition) is 220 to 223 °C. Besides, the inhibition at 10 µM in series [1] (HEK293, 10 μM) is 46.1%.
The molecule `CC1SC(=NC2CCCC2)N(C)C1CC(=O)Nc1ccc(Cl)cc1.Cl` (centres unmarked) [KHG24657, (2-cyclopentylimino-3,5-dimethyl-1,3-thiazolidine-4-yl)-N-(4-chlorophenyl)-acetamide hydrochloride] showed a melting point of 201 to 203 °C. For the same molecule, in series [1] (HEK293, 10 μM), the inhibition at 10 µM worked out at 48%.
`CN1C(=NC2CCCCCC2)SCC1C(=O)NCc1cccc(F)c1.Cl` (centres unmarked) [KHG24666, (2-cycloheptylimino-3-methyl-1,3-thiazolidine-4-yl)-N-(3-fluorobenzyl)-carboxamide hydrochloride] yielded a melting point of 226.1 °C. For the same molecule, the inhibition at 10 µM in series [1] (HEK293, 10 μM) was 46.2%.
`CN1C(=NC2CCCCCC2)SCC1C(=O)NCc1cccc(F)c1` (centres unmarked) [KHG24667, (2-cycloheptylimino-3-methyl-1,3-thiazolidine-4-yl)-N-(3-fluorobenzyl)-carboxamide] showed a melting point of 140.1 °C. The “FDSS (% inhibition)/10uM” value in series [1] (10 μM) was 45.99%.
In turn, `Br.CN1C(=NC2CCCCCC2)SCC1C(=O)NCc1cccc(Br)c1` (centres unmarked) [KHG24668, (2-cycloheptylimino-3-methyl-1,3-thiazolidine-4-yl)-N-(3-bromobenzyl)-carboxamide hydrobromide] came in with a melting point of 197.3 °C. Also, the inhibition at 10 µM in series [1] (HEK293, 10 μM) came out at 50.7%.
Consider `CN1C(=NC2CCCCCC2)SCC1C(=O)NCc1cccc(Br)c1` (centres unmarked) [KHG24669, (2-cycloheptylimino-3-methyl-1,3-thiazolidine-4-yl)-N-(3-bromobenzyl)-carboxamide], for which the melting point was 133 °C. The “FDSS (% inhibition)/10uM” value in series [1] (10 μM) amounted to 36.57%.
`Br.CN1C(=NC2CCCCCC2)SCC1C(=O)NCc1ccccc1C(F)(F)F` (centres unmarked) [KHG24670, (2-cycloheptylimino-3-methyl-1,3-thiazolidine-4-yl)-N-(2-trifluoromethylbenzyl)-carboxamide hydrobromide] registered a melting point of 236.9 °C. For the same molecule, in series [1] (HEK293, 10 μM), the inhibition at 10 µM was 46.7%.
`CN1C(=NC2CCCCCC2)SCC1C(=O)NCc1ccccc1C(F)(F)F` (centres unmarked) [KHG24671, (2-cycloheptylimino-3-methyl-1,3-thiazolidine-4-yl)-N-(2-trifluoromethylbenzyl)-carboxamide] came in with a melting point of 223 °C. Further, the “FDSS (% inhibition)/10uM” value in series [1] (10 μM) was 47.2%.
As for `CCCCN1C(=NC23CC4CC(CC(C4)C2)C3)SCC1CC(=O)Nc1ccc(Cl)cc1.Cl` (centres unmarked) [KHG24775, [2-(1-adamantylimino)-3-(n-butyl)-1,3-thiazolidine-4-yl]-N-(4-chlorophenyl)-acetamide hydrochloride], the melting point stood at 158 °C. The inhibition at 10 µM in series [1] (HEK293, 10 μM) turned out to be 62.9%.
On the same counts, the results for `CCCCc1ccc(NC(=O)CC2CSC(=NC34CC5CC(CC(C5)C3)C4)N2CCCC)cc1.Cl` (centres unmarked) [KHG24776, [2-(1-adamantylimino)-3-(n-butyl)-1,3-thiazolidine-4-yl]-N-(4-n-butylphenyl)-acetamide hydrochloride] are 169 °C and 33.8%.
In the case of `CCCCN1C(=NC23CC4CC(CC(C4)C2)C3)SCC1CC(=O)Nc1ccc(C(F)(F)F)cc1.Cl` (centres unmarked) [KHG24777, [2-(1-adamantylimino)-3-(n-butyl)-1,3-thiazolidine-4-yl]-N-(4-trifluoromethylphenyl)-acetamide hydrochloride], the melting point turned out to be 220 °C. Further, the inhibition at 10 µM in series [1] (HEK293, 10 μM) amounted to 49.2%.
Consider `CCCCN1C(=NC23CC4CC(CC(C4)C2)C3)SCC1CC(=O)Nc1ccc(F)cc1.Cl` (centres unmarked) [KHG24780, [2-(1-adamantylimino)-3-(n-butyl)-1,3-thiazolidine-4-yl]-N-(4-fluorophenyl)-acetamide hydrochloride], for which the melting point is 163 °C. The inhibition at 10 µM in series [1] (10 μM) was 55.3%.
As to `CCCCN1C(=NC23CC4CC(CC(C4)C2)C3)SCC1CC(=O)Nc1ccc(C)cc1.Cl` (centres unmarked) [KHG24781, [2-(1-adamantylimino)-3-(n-butyl)-1,3-thiazolidine-4-yl]-N-(4-methylphenyl)-acetamide hydrochloride], the melting point was 164 °C. Besides, in series [1] (HEK293, 10 μM), the inhibition at 10 µM is 47.2%.
Consider `CCCCN1C(=NC23CC4CC(CC(C4)C2)C3)SCC1CC(=O)Nc1ccc(CC)cc1.Cl` (centres unmarked) [KHG24782, [2-(1-adamantylimino)-3-(n-butyl)-1,3-thiazolidine-4-yl]-N-(4-ethylphenyl)-acetamide hydrochloride], for which the melting point is 156 °C. Moreover, the inhibition at 10 µM in series [1] (HEK293, 10 μM) turned out to be 30.6%.
On the same counts, the results for `CCCCN1C(=NC23CC4CC(CC(C4)C2)C3)SCC1CC(=O)Nc1ccc(Cl)cc1F.Cl` (centres unmarked) [KHG24783, [2-(1-adamantylimino)-3-(n-butyl)-1,3-thiazolidine-4-yl]-N-(4-chloro-2-fluorophenyl)-acetamide hydrochloride] are 161 °C and 54.4%.
The molecule `CCCCN1C(=NC23CC4CC(CC(C4)C2)C3)SCC1CC(=O)Nc1ccc(Br)cc1.Cl` (centres unmarked) [KHG24784, [2-(1-adamantylimino)-3-(n-butyl)-1,3-thiazolidine-4-yl]-N-(4-bromophenyl)-acetamide hydrochloride] returned a melting point of 172 °C. In addition, the inhibition at 10 µM in series [1] (HEK293, 10 μM) was determined as 36.6%.
As to `CCCCN1C(=NC23CC4CC(CC(C4)C2)C3)SCC1CC(=O)Nc1cc(Cl)ccc1F.Cl` (centres unmarked) [KHG24785, [2-(1-adamantylimino)-3-(n-butyl)-1,3-thiazolidine-4-yl]-N-(5-chloro-2-fluorophenyl)-acetamide hydrochloride], the melting point was 156 °C. Besides, in series [1] (HEK293, 10 μM), the inhibition at 10 µM came to 47.1%.
On the same counts, the results for `Cl.O=C(CC1CSC(=NC23CC4CC(CC(C4)C2)C3)N1C1CC1)Nc1cc(C(F)(F)F)cc(C(F)(F)F)c1` (centres unmarked) [KHG24792, [2-(1-adamantylimino)-3-cyclopropyl-1,3-thiazolidine-4-yl]-N-(3,5-ditrifluoromethylphenyl)-acetamide hydrochloride] are 258 °C and 67%.
`CCCCN1C(=NC23CC4CC(CC(C4)C2)C3)SCC1CC(=O)Nc1ccc(C(C)C)cc1.Cl` (centres unmarked) [KHG24795, [2-(1-adamantylimino)-3-(n-butyl)-1,3-thiazolidine-4-yl]-N-(4-isopropylphenyl)-acetamide hydrochloride]: the melting point is 244 °C. For the same molecule, the inhibition at 10 µM in series [1] (HEK293, 10 μM) stood at 33.7%.
Molecule `CCc1ccc(NC(=O)CC2CSC(=NC34CC5CC(CC(C5)C3)C4)N2C2CC2)cc1.Cl` (centres unmarked) [KHG24799, [2-(1-adamantylimino)-3-cyclopropyl-1,3-thiazolidine-4-yl]-N-(4-ethylphenyl)-acetamide hydrochloride] came in with a melting point of 266 °C. Besides, the inhibition at 10 µM in series [1] (HEK293, 10 μM) was found to be 63.4%.
On the same counts, the results for `Cl.O=C(CC1CSC(=NC23CC4CC(CC(C4)C2)C3)N1C1CC1)Nc1ccc(Cl)cc1F` (centres unmarked) [KHG24801, [2-(1-adamantylimino)-3-cyclopropyl-1,3-thiazolidine-4-yl]-N-(4-chloro-2-fluorophenyl)-acetamide hydrochloride] are 261 °C and 63.8%.
With `Cl.O=C(CC1CSC(=NC23CC4CC(CC(C4)C2)C3)N1C1CC1)Nc1cc(Cl)ccc1F` (centres unmarked) [KHG24802, [2-(1-adamantylimino)-3-cyclopropyl-1,3-thiazolidine-4-yl]-N-(5-chloro-2-fluorophenyl)-acetamide hydrochloride], the melting point amounted to 244 °C. The inhibition at 10 µM in series [1] (HEK293, 10 μM) came to 62.4%.
`CCCN1C(=NC23CC4CC(CC(C4)C2)C3)SCC1CC(=O)Nc1cc(Cl)cc(Cl)c1.Cl` (centres unmarked) [KHG24805, [2-(1-adamantylimino)-3-n-propyl-1,3-thiazolidine-4-yl]-N-(3,5-dichlorophenyl)-acetamide hydrochloride] had a melting point of 153 °C. The inhibition at 10 µM in series [1] (HEK293, 10 μM) is 32.2%.
`CCCN1C(=NC23CC4CC(CC(C4)C2)C3)SCC1CC(=O)Nc1ccc(C(C)C)cc1.Cl` (centres unmarked) [KHG24807, [2-(1-adamantylimino)-3-n-propyl-1,3-thiazolidine-4-yl]-N-(4-isopropylphenyl)-acetamide hydrochloride] displayed a melting point of 155 °C. Besides, the inhibition at 10 µM in series [1] (HEK293, 10 μM) worked out at 59.7%.
The like results for `CCCCc1ccc(NC(=O)CC2CSC(=NC34CC5CC(CC(C5)C3)C4)N2CCC)cc1.Cl` (centres unmarked) [KHG24808, [2-(1-adamantylimino)-3-n-propyl-1,3-thiazolidine-4-yl]-N-(4-n-butylphenyl)-acetamide hydrochloride] were, in that order, 213 °C and 37.6%.
Consider `CCCN1C(=NC23CC4CC(CC(C4)C2)C3)SCC1CC(=O)Nc1ccc(C(F)(F)F)cc1.Cl` (centres unmarked) [KHG24809, [2-(1-adamantylimino)-3-n-propyl-1,3-thiazolidine-4-yl]-N-(4-trifluoromethylphenyl)-acetamide hydrochloride], for which the melting point was found to be 221 °C. In addition, the inhibition at 10 µM in series [1] (HEK293, 10 μM) is 57.3%.
Consider `CCCN1C(=NC23CC4CC(CC(C4)C2)C3)SCC1CC(=O)Nc1ccc(Br)cc1.Cl` (centres unmarked) [KHG24812, [2-(1-adamantylimino)-3-n-propyl-1,3-thiazolidine-4-yl]-N-(4-bromophenyl)-acetamide hydrochloride], for which the melting point came to 228 °C. The inhibition at 10 µM in series [1] (HEK293, 10 μM) was found to be 53.8%.
Take `CCCN1C(=NC23CC4CC(CC(C4)C2)C3)SCC1CC(=O)Nc1ccc(C)cc1.Cl` (centres unmarked) [KHG24813, [2-(1-adamantylimino)-3-n-propyl-1,3-thiazolidine-4-yl]-N-(4-methylphenyl)-acetamide hydrochloride]: the melting point was 239 °C. The inhibition at 10 µM in series [1] (HEK293, 10 μM) worked out at 61.6%.
